In article PMC6556873, “Rapid Covalent-Probe Discovery by Electrophile-Fragment Screening” (Journal of the American Chemical Society, 2019):
Like-named read-outs stand apart in the source and are kept apart here.

Experiments:
[1] = molecular target: T1, NNMT (hNNMT) (Homo sapiens, UniProt P40261); parameters: Intact protein LC/MS covalent labelling, fragments in pools of five, 200 uM each, 4 °C; conditions: 24 h, 4 °C, pool of five; 200 µM; covalent
T1 construct: wild type, N-terminal His6 tag kept (no cleavage described), E. coli, construct 31248 Da
T1 sequence (P40261 1-264): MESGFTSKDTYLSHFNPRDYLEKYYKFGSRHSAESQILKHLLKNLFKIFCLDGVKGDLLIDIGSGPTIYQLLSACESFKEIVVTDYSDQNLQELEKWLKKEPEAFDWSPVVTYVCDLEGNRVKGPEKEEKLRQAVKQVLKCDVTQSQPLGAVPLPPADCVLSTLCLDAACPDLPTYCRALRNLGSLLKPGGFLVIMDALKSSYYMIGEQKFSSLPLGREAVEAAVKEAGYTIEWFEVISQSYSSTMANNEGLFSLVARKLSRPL

[2] = molecular target: T2, BSA (Bos taurus, UniProt P02769); parameters: Intact protein LC/MS covalent labelling, fragments in pools of five, 200 uM each, 4 °C; conditions: 24 h, 4 °C, pool of five; 200 µM; covalent
T2 construct: gene ALB
T2 sequence (P02769 whole entry, the tested form may be a part): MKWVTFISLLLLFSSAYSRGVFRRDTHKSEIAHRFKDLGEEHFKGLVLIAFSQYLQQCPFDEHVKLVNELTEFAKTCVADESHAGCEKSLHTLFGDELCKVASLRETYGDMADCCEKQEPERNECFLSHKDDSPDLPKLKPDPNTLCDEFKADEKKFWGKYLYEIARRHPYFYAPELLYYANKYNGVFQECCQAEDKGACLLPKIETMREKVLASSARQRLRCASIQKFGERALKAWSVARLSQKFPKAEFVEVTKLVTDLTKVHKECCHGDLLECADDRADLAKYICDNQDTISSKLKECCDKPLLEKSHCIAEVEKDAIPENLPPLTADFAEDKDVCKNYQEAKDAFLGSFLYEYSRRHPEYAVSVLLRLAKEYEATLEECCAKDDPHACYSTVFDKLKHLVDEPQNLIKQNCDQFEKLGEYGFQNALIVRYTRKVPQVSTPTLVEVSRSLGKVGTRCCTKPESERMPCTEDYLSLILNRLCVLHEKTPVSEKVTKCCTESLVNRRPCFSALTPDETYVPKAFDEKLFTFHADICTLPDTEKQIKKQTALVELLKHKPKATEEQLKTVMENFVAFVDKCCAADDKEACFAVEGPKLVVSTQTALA

[3] = molecular target: T3, PCAF (Homo sapiens, UniProt Q92831); parameters: Intact protein LC/MS covalent labelling, fragments in pools of five, 200 uM each, 4 °C; conditions: 24 h, 4 °C, pool of five; 200 µM; covalent
T3 construct: gene KAT2B
T3 sequence (Q92831 whole entry, the tested form may be a part): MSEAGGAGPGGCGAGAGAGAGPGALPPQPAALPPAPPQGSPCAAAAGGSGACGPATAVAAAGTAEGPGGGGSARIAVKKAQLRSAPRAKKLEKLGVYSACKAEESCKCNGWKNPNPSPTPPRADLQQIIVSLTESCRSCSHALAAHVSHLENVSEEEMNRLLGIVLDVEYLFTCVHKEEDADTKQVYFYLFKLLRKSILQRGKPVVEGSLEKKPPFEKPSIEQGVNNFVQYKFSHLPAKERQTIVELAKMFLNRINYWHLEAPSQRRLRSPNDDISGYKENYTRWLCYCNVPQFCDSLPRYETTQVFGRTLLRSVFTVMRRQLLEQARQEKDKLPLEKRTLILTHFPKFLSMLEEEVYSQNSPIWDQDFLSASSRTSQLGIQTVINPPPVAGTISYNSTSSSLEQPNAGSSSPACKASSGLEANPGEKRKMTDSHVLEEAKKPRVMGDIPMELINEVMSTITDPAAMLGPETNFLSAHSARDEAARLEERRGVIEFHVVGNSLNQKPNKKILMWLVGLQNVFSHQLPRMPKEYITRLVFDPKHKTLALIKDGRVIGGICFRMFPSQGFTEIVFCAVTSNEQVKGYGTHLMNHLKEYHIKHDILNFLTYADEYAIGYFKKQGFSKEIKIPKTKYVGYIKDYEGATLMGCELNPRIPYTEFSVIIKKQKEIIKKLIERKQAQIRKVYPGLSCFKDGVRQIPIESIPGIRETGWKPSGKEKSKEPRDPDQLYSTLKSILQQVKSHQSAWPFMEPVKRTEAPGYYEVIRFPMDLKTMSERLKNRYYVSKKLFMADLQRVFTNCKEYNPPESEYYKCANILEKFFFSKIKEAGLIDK

[4] = molecular target: T4, NUDT7 (Homo sapiens, UniProt P0C024); parameters: Intact protein LC/MS covalent labelling, fragments in pools of five, 200 uM each, 4 °C; conditions: 24 h, 4 °C, pool of five; 200 µM; covalent
T4 construct: residues 14-235, E. coli, pNIC28-Bsa4, N-terminal His6 tag removed by TEV, construct 26672 Da
T4 sequence (P0C024 14-235): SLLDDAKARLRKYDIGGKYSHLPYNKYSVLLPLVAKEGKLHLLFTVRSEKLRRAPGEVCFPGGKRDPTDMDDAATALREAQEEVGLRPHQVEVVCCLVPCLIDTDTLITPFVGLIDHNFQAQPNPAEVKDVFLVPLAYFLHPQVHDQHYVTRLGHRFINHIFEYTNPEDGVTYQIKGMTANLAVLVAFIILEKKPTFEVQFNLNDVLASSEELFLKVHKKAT

[5] = molecular target: T5, OTUB2 (OTUB2A) (Homo sapiens, UniProt Q96DC9); parameters: Intact protein LC/MS covalent labelling, fragments in pools of five, 200 uM each, 4 °C; conditions: 24 h, 4 °C, pool of five; 200 µM; covalent
T5 construct: full length residues 1-234, E. coli BL21(DE3)-R3, His tag removed by TEV, construct 27312 Da
T5 sequence (Q96DC9 1-234): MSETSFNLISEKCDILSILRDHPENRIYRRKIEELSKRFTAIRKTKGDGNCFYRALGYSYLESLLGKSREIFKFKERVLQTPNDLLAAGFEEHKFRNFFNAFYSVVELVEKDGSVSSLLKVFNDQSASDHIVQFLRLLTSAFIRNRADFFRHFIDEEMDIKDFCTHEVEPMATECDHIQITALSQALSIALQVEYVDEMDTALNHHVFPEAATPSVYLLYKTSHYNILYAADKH

[6] = in vitro; parameters: species or system CCD841, HEK293; conditions: human, hb2 cells, read-out: HB-2 Cells Viability (%)
[7] = in vitro; parameters: species or system HB2, CCD841; conditions: human, hek293 cells
[8] = in vitro; parameters: species or system HB2, HEK293; conditions: human, ccd841 cells

| Compound | NNMT [1] | BSA [2] | PCAF [3] | NUDT7 [4] | OTUB2 [5] | viability at 48 h, 10 µM [6] [%] | viability at 48 h, 10 µM [7] [%] | viability at 48 h, 10 µM [8] [%] |
| --- | --- | --- | --- | --- | --- | --- | --- | --- |
| N#Cc1ccc(C(=O)NNC(=O)CCl)cc1 [PCM-0102892] | 0 | 0 | 0 | 0 | 0.14 | 86.2 | 103 | 85.9 |
| CN(Cc1ccc(Cl)s1)C(=O)CCl [PCM-0102898] | 0.47 | 0 | 0 | 0.29 | 0 | 11 | 7.8 | 46.5 |
| O=C(CCl)NC(=O)Cc1ccccc1 [PCM-0102902] | 0 | 0 | 0 | 0 | 0 | 104 | 116 | 117 |
| COCC(=O)NC(=O)CCl [PCM-0102904] | 0 | 0 | 0 | 0 | 0 | 101 | 105 | 116 |
| C=CC(=O)N1CCCC(Cc2nnc3ccccn23)C1 (centres unmarked) [PCM-0102909] | 0 | 0 | 0 | 0 | 0 | 101 | 108 | 87.9 |
| O=C(CCl)NC(=O)Nc1ccc2c(c1)OCCCO2 [PCM-0102910] | 0.69 | 0 | 0 | 0 | 0 | 67.5 | 81 | 67.2 |
| COC(=O)c1cc(Cl)cc(Cl)c1NC(=O)CCl [PCM-0102912] | 0.11 | 0.11 | 0 | 0.17 | 0 | 97 | 106 | 90.6 |
| C=CC(=O)Nc1cc(F)ccc1C [PCM-0102917] | 0 | 0 | 0 | 0 | 0 | 103 | 76.3 | 106 |
| CC(=O)c1oc2ccccc2c1NC(=O)CCl [PCM-0102918] | 0.56 | 0 | 0 | 0.39 | 0 | 42.4 | 36.8 | 65.3 |
| C=CC(=O)N1CCC(Oc2cnc3ccccc3n2)CC1 [PCM-0102925] | 0 | 0 | 0 | 0 | 0 | 107 | 86.8 | 102 |
| O=C(CCl)NC1CCN(C(=O)C2CCCCC2)CC1 [PCM-0102931] | 0 | 0 | 0 | 0 | 0.09 | 82.9 | 118 | 78.6 |
| CC(=O)N1CCC(NC(=O)CCl)CC1 [PCM-0102932] | 0 | 0 | 0 | 0 | 0.07 | 95.1 | 88 | 85.9 |
| N#Cc1cccc(CNC(=O)CCl)c1 [PCM-0102936] | 0 | 0 | 0 | 0 | 0.32 | 97.1 | 83.1 | 94.9 |
| CN(Cc1ccc(F)cc1)C(=O)CCl [PCM-0102939] | 0 | 0 | 0 | 0 | 0.1 | 34.8 | 42.7 | 69.2 |
| C=CC(=O)NCC1CCCc2sc(C)nc21 (centres unmarked) [PCM-0102952] | 0 | 0 | 0 | 0 | 0 | 97.6 | 95.2 | 114 |
| CN(Cc1ccc2c(c1)OCCO2)C(=O)CCl [PCM-0102958] | 0 | 0 | 0 | 0.27 | 0.09 | 74.4 | 52 | 81 |
| Cc1ccc(C(=O)N2CCN(C(=O)CCl)CC2)cc1 [PCM-0102962] | 0 | 0 | 0 | 0 | 0 | 30.1 | 15.6 | 75.3 |

Now from value to compound, other results behind:

| NNMT [1] | BSA [2] | PCAF [3] | NUDT7 [4] | OTUB2 [5] | Compound | viability at 48 h, 10 µM [6] [%] | viability at 48 h, 10 µM [7] [%] | viability at 48 h, 10 µM [8] [%] |
| --- | --- | --- | --- | --- | --- | --- | --- | --- |
| 0.62 | 0 | 0 | 0.14 | 0 | O=C(CCl)Nc1cccc(Cl)c1N1CCOCC1 [PCM-0102893] | 51.2 | 26.9 | 78 |
| 0 | 0 | 0 | 0.29 | 0.14 | NS(=O)(=O)c1ccccc1NC(=O)CCl [PCM-0102903] | 65.4 | 69.7 | 55.2 |
| 0.2 | 0 | 0 | 0.1 | 0.07 | Cl.O=C(CCl)N1CCN(c2ccc(F)cc2)CC1 [PCM-0102905] | 24.7 | 56.8 | 77 |
| 0.22 | 0 | 0 | 0.45 | 0 | COc1ccc(C2=CCN(C(=O)CCl)CC2)cc1 [PCM-0102929] | 59.4 | 71 | 90.4 |
| 0 | 0 | 0 | 0.08 | 0 | O=C(CCl)N1CCOC1=O [PCM-0102943] | 101 | 108 | 109 |
| 0 | 0 | 0 | 0 | 0 | Cc1nc(C2(NC(=O)CCl)CCCCCC2)no1 [PCM-0102944] | 103 | 129 | 113 |
| 0 | 0 | 0 | 0 | 0 | Cl.O=C(CCl)NCc1ccccn1 [PCM-0102950] | 100 | 97.4 | 109 |
| 0.78 | 0 | 0 | 0.27 | 0.14 | Cc1ccc(NC(=O)CCl)cc1Br [PCM-0102955] | 41.5 | 38.3 | 71.2 |
